Reference: article PMC9061857, “A fluorogenic probe for granzyme B enables in-biopsy evaluation and screening of response to anticancer immunotherapies” (Nature Communications, 2022)
Where no end group is shown, it is not given here.

Legend:
[1] = system: EpCAM+ epithelial cells from lung cancer patients; assay: Flow cytometry of paired tumor and non-tumor lung tissue; format: cell-based, human; details: H5 5 μM, 30 min r.t.
Description: Tissue samples of tumor and paired non-tumor (n = 5 for both conditions) lungs were taken from treatment-naïve patients undergoing surgical resection. Participants provided written informed consent and the study was approved by NHS Lothian REC and facilitated by NHS Lothian SAHSC Bioresource (REC No: 15/ES/0094). Fresh samples were minced, incubated with 1 mg mL^−1 collagenase IV, 1 mg mL^−1 DNase 1, 50 U mL^−1 hyaluronidase in DMEM for 1 h at 37 °C with agitation, and passed through 100 and 70 µm filters followed by red cell lysis. […] Cells were washed twice in PBS 2% fetal calf serum (FCS) prior to collection. For microscopy, formalin-fixed paraffin-embedded slides of non-small cell lung cancer and paired non-cancerous lung were deparaffinized, rehydrated, stained with hematoxylin and eosin, followed by dehydration and imaging on a Zeiss AxioScan microscope.
Supplementary Figure 17. Gating strategy for assessing the probe H5 in human lung tissue. All cells were gated to exclude debris and gated on singlets. Leukocytes were excluded on the basis of CD45 positivity, and live EpCAM positive cells were selected by excluding cells stained positive with the Zombie UV viability dye (1:1000 dilution). Probe H5 positivity in the live EpCAM+ population in non-tumor and tumor tissues was assessed against cells stained in the absence of prob e H5 giving a background of <1% positivity.
(§1) (1 picture or pasted object on this page, not shown here)

human GzmB (hGzmB) = molecular target: T1, human GzmB (hGzmB) (Homo sapiens, UniProt P10144); assay: Fluorescence assay with recombinant hGzmB (fluorogenic response, time course); format: biochemical; details: for t50: probe 25 μM, hGzmB 20 nM
T1 construct: For active GzmB vs pro-GzmB, p < 0.0001
T1 sequence (P10144 21-247): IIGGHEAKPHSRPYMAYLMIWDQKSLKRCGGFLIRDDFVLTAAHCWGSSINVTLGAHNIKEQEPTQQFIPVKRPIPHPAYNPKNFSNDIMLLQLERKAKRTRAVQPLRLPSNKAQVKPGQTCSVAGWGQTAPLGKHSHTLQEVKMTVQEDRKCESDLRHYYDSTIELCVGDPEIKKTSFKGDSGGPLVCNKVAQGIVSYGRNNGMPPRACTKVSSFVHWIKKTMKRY
Description: Fluorescence-based assays with different enzymes were performed in the appropriate buffers. Probes (25 μM) were added to enzymes (20 nM or at the indicated concentrations) in 384-well plates and their fluorescence emission was recorded at 450 nm (for AMC) or 510 nm (for BODIPY) at 37 °C using a Synergy H1 Hybrid spectrophotometer. In experiments with Ac-IEPD-CHO (50 μM), the inhibitor was preincubated for 1 h with GzmB before the addition of any probe.

SCC cancer cells = assay: Ex vivo flow cytometry of wild-type SCC and SCC FAK (−/−) tumors; format: cell-based, mouse; details: for Fluorescence intensity of H5 inside SCC cancer cells (525 nm) / Freq cancer cells (GzmB-positive SCC cancer cells by H5 staining): H5 5 μM, 30 min; for Mean fluorescence intensity after incubation with probe H5: SCC (-/-) tumor digests
Description: P-values from two-tailed t-tests using Welch correction. Source data (c–f) provided as a Source Data file.
All animal work was carried out in compliance with UK Home Office guidelines. SCC tumors were established and labeled for flow cytometry as previously described. Briefly, 1 × 10^6 SCC cancer cells (obtained from Dr Alan Serrels at The University of Edinburgh) were injected subcutaneously into FVB/N mice (n = 4 for both WT and FAK (−/−) groups, Sex: female, Age: 10–14 weeks, obtained from Harlan UK), which were sacrificed 14 days post-implantation and tumors disaggregated to generate a single-cell suspension. […] Data analysis was performed using FlowJo V10 software. […]
and SCC7.1 FAK-/- tumors. All cells were gated on singlets and live cells (Zombie NIR viability dye, 1:1000 dilution). Wild-type SCC and SCC FAK-/- were gated as CD45− CD140a− (AF700 & BV650, respectively). All non-cancerous and non-fibrotic cells were gated on CD45+ (AF700). Monocytes were gated on CD11b+ (PerCP-Cy5.5) whilst the remaining cells were classified as CD8+ T cells (PE), CD4+ T cells (eFluor450) or immune cells (CD4−CD8− or CD4+CD8+).
as §1

hGzmB = assay: Limit of detection of hGzmB by probe fluorescence; format: biochemical, human; details: H5 25 μM, 37 °C, emission 530 nm, no washing steps (Fig. S4)
Description: Supplementary Figure 1. Reactivity of fluorogenic substrates against human GzmB and limits of detection. a) Reaction conversion rates (by HPLC-UV detection at 350 nm) for Ac-IEPD-AMC (50 μM) in TRIS buffer (see Methods) at 37 °C containing different concentrations of hGzmB. Data presented as mean values±SEM (n=3 independent biological experiments). b) Reaction conversion rates (by HPLC-UV detection at 500 nm) for the tetrapeptide T1 (25 μM) in TRIS buffer at 37 °C containing different concentrations of hGzmB. Data presented as mean values±SEM (3 independent biological experiments).
Source data provided as a Source Data file.
as §1
Supplementary Figure 4. Comparative enzyme selectivity and limit of detection for […]
Ac-IEPD-AMC (all at 25 μM) after incubation for 90 min at 37 °C with hGzmB (light gray bars), human caspase-3 (dark gray bars) and hGzmA (white bars) (all enzymes used at 20 nM). Data presented as mean values±SEM (n=3). Excitation wavelengths: 450 nm (for […]
450 nm (for Ac-IEPD-AMC). b) Limit of detection of hGzmB by fluorescence emission […]
presented as mean values±SD (2 independent experiments with 3 technical replicates).

Q: Which “percentage of EpCAM+ H5+ epithelial cells” value (“percentage” below) ([1]; Healthy (non-tumor) tissue, Data 1) does the source give for “IEPDAL [H5, FRET hexapeptide IEPDAL with BODIPY-FL fluorophore at the N-terminal end and Dabcyl quencher]” here?
A: 10.4%

Q: And the “percentage” value ([1]; Healthy (non-tumor) tissue, Data 2)?
A: 9.7%

Q: And the “percentage” value ([1]; Healthy (non-tumor) tissue, Data 3)?
A: 11.0%

Q: What about the “percentage” value ([1]; Healthy (non-tumor) tissue, Data 4) of the same substance?
A: 6.6%

Q: And the “percentage” value ([1]; Healthy (non-tumor) tissue, Data 5)?
A: 10.4%

Q: And the “percentage” value ([1]; Tumor tissue, Data 1)?
A: 19.4%

Q: What about the “percentage” value ([1]; Tumor tissue, Data 2) of the same substance?
A: 19.1%

Q: What about the “percentage” value ([1]; Tumor tissue, Data 3) of the same substance?
A: 21.3%

Q: And the “percentage” value ([1]; Tumor tissue, Data 4)?
A: 18.6%

Q: What about the “percentage” value ([1]; Tumor tissue, Data 5) of the same substance?
A: 36.0%

Q: And the “specificity for hGzmB over other enzymes” value (human GzmB (hGzmB); caspases, granzymes, MMPs, neutrophil elastase, pro-hGzmB)?
A: minimal response to other enzymes

Q: What about the t50 (human GzmB (hGzmB); Data 1) of the same substance?
A: 7 min

Q: And the t50 (human GzmB (hGzmB); Data 2)?
A: 7 min

Q: What about the t50 (human GzmB (hGzmB); Data 3) of the same substance?
A: 7 min

Q: What about the “Fluorescence intensity of H5 inside SCC cancer cells (525 nm)” value (“Fluorescence intensity … (525 nm)” below) (SCC cancer cells; SCC FAK tumor, Data 1) of the same substance?
A: 17211

Q: What about the “Freq cancer cells (GzmB-positive SCC cancer cells by H5 staining)” value (“Freq cancer cells” below) (SCC cancer cells; SCC FAK tumor, Data 1) of the same substance?
A: 19%

Q: And the “Fluorescence intensity … (525 nm)” value (SCC cancer cells; SCC FAK tumor, Data 2)?
A: 15125

Q: And the “Freq cancer cells” value (SCC cancer cells; SCC FAK tumor, Data 2)?
A: 45%

Q: What about the “Fluorescence intensity … (525 nm)” value (SCC cancer cells; SCC FAK tumor, Data 3) of the same substance?
A: 14692

Q: What about the “Freq cancer cells” value (SCC cancer cells; SCC FAK tumor, Data 3) of the same substance?
A: 38%

Q: And the “Fluorescence intensity … (525 nm)” value (SCC cancer cells; SCC FAK tumor, Data 4)?
A: 14334

Q: What about the “Freq cancer cells” value (SCC cancer cells; SCC FAK tumor, Data 4) of the same substance?
A: 41%

Q: And the “Fluorescence intensity … (525 nm)” value (SCC cancer cells; SCC tumor, Data 1)?
A: 5564

Q: And the “Freq cancer cells” value (SCC cancer cells; SCC tumor, Data 1)?
A: 6%

Q: What about the “Fluorescence intensity … (525 nm)” value (SCC cancer cells; SCC tumor, Data 2) of the same substance?
A: 6027

Q: What about the “Freq cancer cells” value (SCC cancer cells; SCC tumor, Data 2) of the same substance?
A: 4.5%

Q: What about the “Fluorescence intensity … (525 nm)” value (SCC cancer cells; SCC tumor, Data 3) of the same substance?
A: 5635

Q: What about the “Freq cancer cells” value (SCC cancer cells; SCC tumor, Data 3) of the same substance?
A: 2.78%

Q: What about the “Fluorescence intensity … (525 nm)” value (SCC cancer cells; SCC tumor, Data 4) of the same substance?
A: 5745

Q: And the “Freq cancer cells” value (SCC cancer cells; SCC tumor, Data 4)?
A: 3.77%

Q: What about the “Mean fluorescence intensity after incubation with probe H5” value (“Mean fluorescence intensity” below) (SCC cancer cells; CD4 T cells, Data 1) of the same substance?
A: 3345

Q: What about the “Mean fluorescence intensity” value (SCC cancer cells; CD4 T cells, Data 2) of the same substance?
A: 2508

Q: And the “Mean fluorescence intensity” value (SCC cancer cells; CD8 T cells, Data 1)?
A: 3289

Q: What about the “Mean fluorescence intensity” value (SCC cancer cells; CD8 T cells, Data 2) of the same substance?
A: 2980

Q: What about the “Mean fluorescence intensity” value (SCC cancer cells; cancer cells, Data 1) of the same substance?
A: 11273

Q: And the “Mean fluorescence intensity” value (SCC cancer cells; cancer cells, Data 2)?
A: 13796

Q: And the “Mean fluorescence intensity” value (SCC cancer cells; immune cells (CD8-CD4-CD11b-), Data 1)?
A: 3435

Q: And the “Mean fluorescence intensity” value (SCC cancer cells; immune cells (CD8-CD4-CD11b-), Data 2)?
A: 2496

Q: And the “Mean fluorescence intensity” value (SCC cancer cells; monocytes / macrophages, Data 1)?
A: 2362

Q: What about the “Mean fluorescence intensity” value (SCC cancer cells; monocytes / macrophages, Data 2) of the same substance?
A: 2247

Q: And the “cancer cells labeled with probe H5” value (SCC cancer cells; SCC FAK (−/−) tumors, H5 30 min)?
A: over 40%

Q: What about the LoD (hGzmB) of the same substance?
A: 6 pM
